Test results from US20240392241A1, “METHOD FOR PRODUCING CELL MASS INCLUDING PITUITARY TISSUE AND CELL MASS” (SUMITOMO CHEMICAL COMPANY, LIMITED, priority 2021, published 2024).
Ends that are not written are not given here.

Key:
Assay type in all cases: cell-based
[1] = test system: human ES cells (RAX::Venus knock-in KhES-1 strain); experiment: Addition period of IWP2, SB431542 and BMP4, immunostaining of PITX1, LHX3, E-cadherin on day 29 (Reference Example 2); conditions: IWP2 (2 μM) and SB431542 (1 μM) added day 0 to day 29 and BMP4 (5 nM) day 2 to day 6, vs other addition periods
Description: After performing step a, suspension culturing was performed in a medium containing a Wnt signal inhibitor IWP2 (2 μM) and a TGFβ signal inhibitor SB431542 (1 μM) in addition to BMP4 (5 nM) and SAG (100 nM (step (1)) or 2 μM (step (2)). IWP2 and SB431542 were added during the period from day 0 to day 6 after the start of suspension culturing (FIG. 8B-1), from day 0 to day 12 after the start of suspension culturing (FIG. 8B-2), or from day 0 to day 29 after the start of suspension culturing (FIG. 8B-3). BMP4 was added during the period from day 2 to day 6 after the start of suspension culturing (upper panel of each of FIGS. 8B-1 to -3) or from day 2 to day 18 after the start of suspension culturing (lower panel of each of FIGS. 8B-1 to -3). Using cell aggregates on day 29 after the start of suspension culturing, cryosections were prepared in the same manner as in Example 3. These cryosections were subjected to immunostaining using PITX1 (anti-Pitx1 antibody, homemade) and antibody against epithelial cell marker E-cadherin (manufactured by Takara Bio Inc.). As a result, it was confirmed that the outside of the aggregate was a nonneural epithelial tissue that was positive for PITX1 and E-cadherin, and the inside was a neural epithelial tissue that was positive for RAX::Venus (FIGS. 8B-1 to -3).
The scale bar at the bottom right of FIGS. 8B-1 to -3 indicates 200 μm.

[2] = test system: human ES cells (KhES-1 strain); experiment: Concentration of IWP2, BMP4 and SAG, ACTH concentration in culture medium (Reference Example 3); conditions: combination: low (IWP2 0.5 μM, BMP4 0.5 nM, SAG 700 nM) vs high (IWP2 2 μM, BMP4 5 nM, SAG 2 μM); days 61-250
Description: Then, for the purpose of examining the optimal concentrations of IWP2, BMP4, and SAG to be added in each step, two groups of a high concentration group (IWP2; 2 μM, BMP4; 5 nM, SAG; 2 μM) and a low concentration group (IWP2; 0.5 μM, BMP4; 0.5 nM, SAG; 700 nM) were established, and a comparative study was conducted using the ACTH concentration in the culture medium on days 61, 103, 152, 201, and 250 of differentiation induction as an indicator. Using human ES cells (KhES-1 strain) and according to step shown in FIG. 9A, a cell population including cells that constitute pituitary tissue was produced. Using the method described in Example 4, the concentration of ACTH in the medium was measured.

[3] = test system: cell aggregates containing pituitary tissue from human ES cells (KhES-1 strain); experiment: ACTH stimulation/suppression test by CRH or dexamethasone in cell aggregates containing pituitary tissue (Example 14); conditions: 24 hr, cell aggregates on day 103
Description: Cell aggregates containing pituitary tissue were produced in the same manner as in Example 10, and ACTH secretory capacity was studied. 20 cell aggregates with different numbers of culture days after the start of suspension culturing were transferred to a 10 cm suspension culture dish containing 10 mL of serum-free medium supplemented with 20% KSR, and after culturing for 3-4 days at 37° C., the culture supernatant was recovered. The ACTH concentration in the recovered culture supernatant was measured by the ELISA method used in clinical testing (testing outsourced to SRL, Ltd.). As a result, ACTH secretion was observed from day 29 after the start of suspension culturing (23 pg/mL), and the amount of ACTH secretion increased remarkably as the number of days of culture increased (FIG. 17A).
Then, it was studied whether an increase in ACTH secretion by CRH and suppression of ACTH secretion by glucocorticoid were observed. Specifically, 20 cell aggregates on day 103 after the start of suspension culturing were transferred to a 10 cm suspension culture dish containing 10 mL of serum-free medium supplemented with 20% KSR, and after culturing for 24 hr under conditions of 37° C., […], the culture supernatant was recovered. […] The ACTH concentration in the recovered culture supernatant was measured as described above. […]

[4] = test system: human iPS cells (201B7 strain); experiment: SAG addition period and ACTH secretion capacity of cell aggregates (Example 9); conditions: stopping SAG treatment 30 days after start of differentiation induction vs continued SAG treatment
Description: Using human iPS cells (201B7 strain) and according to the steps shown in FIG. 12A, cell aggregates were produced. Regarding the SAG treatment period, two groups of a group in which SAG is added from immediately after the start of differentiation induction until day 30, and a group in which SAG is added from immediately after the start of differentiation induction and after day 30 (until day 61, until day 103, and until day 131) were set, and the ACTH secretion capacity was compared. ACTH was measured by a method similar to that in Example 4.

[5] = test system: human iPS cell line 1231A3; experiment: Effect of substance reducing oxidative stress on pituitary organoid production, bright field observation (Example 6); conditions: 1 mM from day 10; day 30 of differentiation induction
[6] = test system: human iPS cells (1231A3 strain); experiment: Timing of BMP4 addition under JNK inhibitor addition conditions, oblique illumination observation (Example 17); conditions: BMP4 added after 24 hr (day 1) vs about 48 hr (day 2); JNK inhibitor present; day 28
Description: In Example 17, a cell population containing cells constituting pituitary tissue was produced according to the steps shown in FIG. 20A. Specifically, human iPS cells (1231A3 strain, obtained from RIKEN) were cultured under feeder-free conditions according to the method described in Scientific Reports, 4, 3594 (2014). As the feeder-free medium, StemFit medium was used and, as the feeder-free scaffold, Laminin 511-E8 was used.
Differentiation induction was performed under the same conditions as in Example 1, except that the addition conditions of BMP4 and the final concentration of IWP-2 were changed to 1 μM. As a condition for adding BMP4, step (2) was performed about 24 hr (day 1) and about 48 hr (day 2) after the start of differentiation induction.
On day 28 after the start of suspension culturing, oblique illumination observation was performed using an inverted fluorescence microscope (BIOREVO BZ-X800, manufactured by Keyence Corporation) (FIG. 20B). As a result, pituitary organoid with placode-like pituitary tissue observed as a thick, highly transparent epithelium on the surface of the cell mass was formed, under both BMP4 addition conditions of about 24 hr (day 1) and about 48 hr (day 2) after the start of differentiation induction. […]

Row | Molecule | formation of PITX1-positive and E-cadherin-positive nonneural epithelial tissue [1] | ACTH concentration in the culture medium, low concentration group vs high concentration group [2] | also measured
1 | Cc1ccc2nc(NC(=O)CSc3nc4c(c(=O)n3-c3ccccc3)SCC4)sc2c1 [IWP2, N-(6-Methyl-2-benzothiazolyl)-2-[(3,4,6,7-tetrahydro-4-oxo-3-phenylthieno[3,2-d]pyrimidin-2-yl)thio]acetamide] | highest probability | higher | 
2 | CRH: CRH (manufactured by Nipro ES Pharma) used to stimulate ACTH secretion (SEEPPISLDLTFHLLREVLEMARAEQLAQQAHSNRKLMEII; ends and bridges not checked; UniProt P06850 154-194, looked up) |  |  | increase of ACTH secretion amount ([3]; 5 μg/mL): about 3 times
3 | CNC1CCC(N(Cc2cccc(-c3ccncc3)c2)C(=O)c2sc3ccccc3c2Cl)CC1 (stereo not drawn) [SAG, N-Methyl-N′-(3-pyridinylbenzyl)-N′-(3-chlorobenzo[b]thiophene-2-carbonyl)-1,4-diaminocyclohexane] |  | higher | ACTH secretion capacity [4]: improved
4 | C[C@@H]1C[C@H]2[C@@H]3CCC4=CC(=O)C=C[C@]4(C)[C@@]3(F)[C@@H](O)C[C@]2(C)[C@@]1(O)C(=O)CO [DX, dexamethasone] |  |  | reduction of the amount of ACTH secretion ([3]; 500 ng/mL): about 40%
5 | CC(=O)N[C@@H](CS)C(=O)O [NAC, N-acetylcysteine] |  |  | cell masses smaller in diameter than in the non-addition conditions [5]: about 50 μm; proliferation of unintended cells [5]: suppressed
6 | NC(=O)c1ccc(-c2nc(-c3ccc4c(c3)OCO4)c(-c3ccccn3)[nH]2)cc1 [SB431542, 4-[4-(3,4-Methylenedioxyphenyl)-5-(2-pyridyl)-1H-imidazol-2-yl]benzamide] | highest probability |  | 
7 | BMP4: BMP signal transduction pathway activating substance (protein, UniProt P12644 293-408, looked up) Bone morphogenetic protein 4: SPKHHSQRARKKNKNCRRHSLYVDFSDVGWNDWIVAPPGYQAFYCHGDCPFPLADHLNSTNHAIVQTLVNSVNSSIPKACCVPTELSAISMLYLDEYDKVVLKNYQEMVVEGCGCR | highest probability | higher | size of the pituitary organoids formed [6]: more uniform
